Reference: patent US20050158385A1, “Coating technique for deposition of drug substance on a substrate” (priority 2002, published 2005)

Assay: in vitro release (dissolution) of tablets, USP II apparatus
Assay type: physicochemical
Conditions: tablets from Trial 2 (three strands of PVDF as core), 250 ml 0.1 N HCl, 37° C., paddle 50 rpm
Method: The dimensions of the tablets from both trials were similar, as both trials yielded tablets approximately 3 mm thick. To determine the dose of 2,3:4,5-bis-O-(1-methylethylidene)-β-D-fructopyranose sulfamate in each tablet, the tablet was dissolved in 10 ml H2O/0.1 N HCl 9/1 v/v. The concentration of 2,3:4,5-bis-O-(1-methylethylidene)-β-D-fructopyranose sulfamate was analyzed by HPLC (Waters System with Millenium Software, 2690 Alliance, Waters, Milford, Mass.). A sample of 50 uL is injected into a Zorbax Eclipse (HP, Palo Alto, Calif.) column (XDB-C8, 4.6*150 mm, P/N: 993967.906). The mobile phase consists of H2O/methanol 68/32 w/w at a flow rate of 1.5 mL/min. The concentration was determined with a refractive index detector (Sensitivity 32). The peak retention time is 6.7 minutes and the run takes 14 minutes.
The in vitro release of the tablets made in this example was also determined. Four tablets from Trial 2 were placed in a USP II apparatus (SR8 plus, Hanson, Chatsworth, Calif.) containing 250 ml of 0.1 N HCl at 37° C. and a paddle rotating at 50 rpm. Dissolution was followed up to 1 hour, with samples taken after 5, 15, 30 and 60 minutes. An aliquot of 5 ml was filtered through a PTFE 0.2 micron filter. The sample was not replaced with fresh solvent. The concentration of 2,3:4,5-bis-O-(1-methylethylidene)-β-D-fructopyranose sulfamate was analyzed by HPLC as discussed above.

For `CC1(C)O[C@@H]2[C@@H](CO[C@@]3(COS(N)(=O)=O)OC(C)(C)O[C@@H]23)O1` [2,3:4,5-bis-O-(1-methylethylidene)-β-D-fructopyranose sulfamate], which “2,3:4,5-bis-O-(1-methylethylidene)-β-D-fructopyranose sulfamate released” value (after 5 minutes) is on record?
Its value is “approximately 4%”.

And the “2,3:4,5-bis-O-(1-methylethylidene)-β-D-fructopyranose sulfamate released” value (by 15 minutes)?
Its value is “about 48%”.

And the “2,3:4,5-bis-O-(1-methylethylidene)-β-D-fructopyranose sulfamate released” value (in 30 minutes)?
The value was “complete release”.
